Read-outs that look alike come from different tables or passages of the source.
Legend:
[1] = tested on: forty-four human cancer cell lines; assay: Cell proliferation assay (ATPlite, 72 hours) in the 44 cell line Oncolines panel; assay type: cell-based; details: Homo sapiens
[2] = molecular target: T1, panel of more than 300 wild-type and mutant kinases (313 kinase panel) (Homo sapiens, UniProt P00540); assay: Kinase profiling in a biochemical assay panel (mobility shift assays and ELISA), %-inhibition at 1 μM; selectivity entropy; details: kinase MOS; 1 μM
T1 sequence (P00540 1-346): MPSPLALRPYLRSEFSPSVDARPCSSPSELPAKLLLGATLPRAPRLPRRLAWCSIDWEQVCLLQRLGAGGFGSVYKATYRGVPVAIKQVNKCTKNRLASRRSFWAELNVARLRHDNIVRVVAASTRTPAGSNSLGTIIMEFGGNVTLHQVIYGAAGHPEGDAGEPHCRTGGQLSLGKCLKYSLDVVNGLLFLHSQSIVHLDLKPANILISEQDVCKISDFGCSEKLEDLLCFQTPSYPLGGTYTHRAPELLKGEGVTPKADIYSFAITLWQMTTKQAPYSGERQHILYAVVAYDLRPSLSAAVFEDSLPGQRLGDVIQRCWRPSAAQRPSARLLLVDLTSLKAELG

[3] = molecular target: panel of more than 300 wild-type and mutant kinases (313 kinase panel) (Homo sapiens, UniProt P51617); assay: as above; details: kinase IRAK1; compound at 1 μM
[4] = molecular target: panel of more than 300 wild-type and mutant kinases (313 kinase panel) (Homo sapiens, UniProt P42684); assay: as above; details: kinase ARG; 1 μM compound
[5] = molecular target: panel of more than 300 wild-type and mutant kinases (313 kinase panel) (Homo sapiens, UniProt P07947, T348I); assay: as above; details: kinase YES(T348I); compound at 1 μM
[6] = molecular target: panel of more than 300 wild-type and mutant kinases (313 kinase panel) (Homo sapiens, UniProt P11362, V561M); assay: as above; details: kinase FGFR1(V561M); compound at 1 μM
[7] = molecular target: panel of more than 300 wild-type and mutant kinases (313 kinase panel) (Homo sapiens, UniProt P00533); assay: as above
[8] = molecular target: panel of more than 300 wild-type and mutant kinases (313 kinase panel) (Homo sapiens, UniProt P15056); assay: as above; details: kinase BRAF; 1 μM compound
[9] = molecular target: panel of more than 300 wild-type and mutant kinases (313 kinase panel) (Homo sapiens, UniProt P51451); assay: as above; details: kinase BLK; 1 μM compound
[10] = molecular target: panel of more than 300 wild-type and mutant kinases (313 kinase panel) (Homo sapiens, UniProt P00533, L858R); assay: as above
[11] = molecular target: panel of more than 300 wild-type and mutant kinases (313 kinase panel) (Homo sapiens, UniProt P00533, T790M); assay: as above; details: kinase EGFR(T790M); compound at 1 μM
[12] = molecular target: panel of more than 300 wild-type and mutant kinases (313 kinase panel) (Homo sapiens, UniProt P00533, L861Q); assay: as above; details: kinase EGFR(L861Q); compound at 1 μM
[13] = 4-4 cell, read-out: cell panel IC50, J82
[14] = 4-4 cell, read-out: cell panel IC50, PA-1
[15] = 4-4 cell, read-out: cell panel IC50, SJCRH30
[16] = 4-4 cell, read-out: cell panel IC50, SR
[17] = 769-P, read-out: cell panel IC50, 769-P
[18] = 786-0, read-out: cell panel IC50, 786-0
[19] = A 172, read-out: cell panel IC50, A-172
[20] = A204, read-out: cell panel IC50, A-204
[21] = A498, read-out: cell panel IC50, A-498
[22] = A549, read-out: cell panel IC50, A-549
[23] = A-375, read-out: cell panel IC50, A375
[24] = A-427, read-out: cell panel IC50, A-427
[25] = AN3-CA, read-out: cell panel IC50, AN3 CA
[26] = AU565, read-out: cell panel IC50, AU-565
[27] = BT-20, read-out: cell panel IC50, BT-20
[28] = BT-549, read-out: cell panel IC50, BT-549
[29] = BXPC-3, read-out: cell panel IC50, BxPC-3
[30] = C-33-A, read-out: cell panel IC50, C-33 A
[31] = CAL-27, read-out: cell panel IC50, CAL 27
[32] = CCRF-CEM, read-out: cell panel IC50, CCRF-CEM
[33] = DLD-1, read-out: cell panel IC50, DLD-1
[34] = FaDu, read-out: cell panel IC50, FaDu
[35] = HCT-15, read-out: cell panel IC50, HCT-15
[36] = HCT-116, read-out: cell panel IC50, HCT-116
[37] = Hs-578T, read-out: cell panel IC50, Hs 578T
[38] = Jurkat E6.1, read-out: cell panel IC50, Jurkat E6.1
[39] = K562, read-out: cell panel IC50, K-562
[40] = LS174T, read-out: cell panel IC50, LS 174T
[41] = LoVo, read-out: cell panel IC50, LoVo
[42] = MG-63, read-out: cell panel IC50, MG-63
[43] = MOLT-4, read-out: cell panel IC50, MOLT-4
[44] = MeWo, read-out: cell panel IC50, MeWo
[45] = NCI-H82, read-out: cell panel IC50, NCI-H82
[46] = NCI-H460, read-out: cell panel IC50, NCI-H460
[47] = OVCAR-3, read-out: cell panel IC50, OVCAR-3
[48] = RPMI-7951, read-out: cell panel IC50, RPMI-7951
[49] = SHP77, read-out: cell panel IC50, SHP-77
[50] = SK-N-AS, read-out: cell panel IC50, SK-N-AS
[51] = SW48, read-out: cell panel IC50, SW48
[52] = SW480, read-out: cell panel IC50, SW480
[53] = SW-620, read-out: cell panel IC50, SW620
[54] = U2OS, read-out: cell panel IC50, U-2 OS
[55] = U-87 MG, 72 h, read-out: IC50 in cell proliferation assay (table S5 cellpanel data)
[56] = ACHN, read-out: cell panel IC50, ACHN

Cc1ccc(C(=O)Nc2ccc(CN3CCN(C)CC3)c(C(F)(F)F)c2)cc1C#Cc1cnc2cccnn12 [ponatinib]
IC50 [1, 13]: 1530 nM
IC50 [1, 14]: 814 nM
IC50 [1, 15]: 1110 nM
IC50 [1, 16]: 836 nM
IC50 [1, 17]: 1800 nM
IC50 [1, 18]: 1870 nM
IC50 [1, 19]: 626 nM
IC50 [1, 20]: 92 nM
IC50 [1, 21]: 1320 nM
IC50 [1, 22]: 1150 nM
IC50 [1, 23]: 1140 nM
IC50 [1, 24]: 352 nM
IC50 [1, 25]: 124 nM
IC50 [1, 26]: 1420 nM
IC50 [1, 27]: 5120 nM
IC50 [1, 28]: 1850 nM
IC50 [1, 29]: 817 nM
IC50 [1, 30]: 1000 nM
IC50 [1, 31]: 1720 nM
IC50 [1, 32]: 2250 nM
IC50 [1, 33]: 1130 nM
IC50 [1, 34]: 1110 nM
IC50 [1, 35]: 913 nM
IC50 [1, 36]: 1210 nM
IC50 [1, 37]: 1180 nM
IC50 [1, 38]: 403 nM
IC50 [1, 39]: 6.5 nM
IC50 [1, 40]: 2050 nM
IC50 [1, 41]: 380 nM
IC50 [1, 42]: 2480 nM
IC50 [1, 43]: 977 nM
IC50 [1, 44]: 2220 nM
IC50 [1, 45]: 1100 nM
IC50 [1, 46]: 1430 nM
IC50 [1, 47]: 2950 nM
IC50 [1, 48]: 1150 nM
IC50 [1, 49]: 6490 nM
IC50 [1, 50]: 1080 nM
IC50 [1, 51]: 1550 nM
IC50 [1, 52]: 2170 nM
IC50 [1, 53]: 799 nM
IC50 [1, 54]: 1120 nM
IC50 [1, 55]: 3100 nM
%-inhibition of MOS [2]: 1.59%
%-inhibition of IRAK1 [3]: 79%
%-inhibition, ARG [4]: 100%
%-inhibition of YES(T348I) [5]: 96%
%-inhibition of FGFR1(V561M) [6]: 98%
%-inhibition of EGFR ([7]; 1 µM): 97%
%-inhibition, BRAF [8]: 89%
%-inhibition, BLK [9]: 97%
%-inhibition of EGFR(L858R) ([10]; 1 µM): 95%

COc1cc(Nc2c(C#N)cnc3cc(OCCCN4CCN(C)CC4)c(OC)cc23)c(Cl)cc1Cl [bosutinib]
IC50 [1, 13]: 4470 nM
IC50 [1, 14]: 1260 nM
IC50 [1, 15]: 4390 nM
IC50 [1, 16]: 983 nM
IC50 [1, 17]: 1240 nM
IC50 [1, 18]: 2200 nM
IC50 [1, 19]: 3690 nM
IC50 [1, 20]: 5690 nM
IC50 [1, 21]: 1510 nM
IC50 [1, 22]: 2380 nM
IC50 [1, 23]: 2000 nM
IC50 [1, 24]: 2320 nM
IC50 [1, 56]: 808 nM
IC50 [1, 25]: 8020 nM
IC50 [1, 26]: 4030 nM
IC50 [1, 27]: 9000 nM
IC50 [1, 28]: 4940 nM
IC50 [1, 29]: 2740 nM
IC50 [1, 30]: 108 nM
IC50 [1, 31]: 1690 nM
IC50 [1, 32]: 3550 nM
IC50 [1, 33]: 2250 nM
IC50 [1, 34]: 1930 nM
IC50 [1, 35]: 2050 nM
IC50 [1, 36]: 2900 nM
IC50 [1, 37]: 3630 nM
IC50 [1, 38]: 466 nM
IC50 [1, 39]: 14 nM
IC50 [1, 40]: 1180 nM
IC50 [1, 41]: 811 nM
IC50 [1, 42]: 4210 nM
IC50 [1, 43]: 1290 nM
IC50 [1, 44]: 5600 nM
IC50 [1, 45]: 3500 nM
IC50 [1, 46]: 3720 nM
IC50 [1, 47]: 3030 nM
IC50 [1, 48]: 3230 nM
IC50 [1, 49]: 11500 nM
IC50 [1, 50]: 923 nM
IC50 [1, 51]: 11700 nM
IC50 [1, 52]: 10500 nM
IC50 [1, 53]: 10600 nM
IC50 [1, 54]: 2620 nM
IC50 [1, 55]: 6950 nM
%-inhibition of MOS [2]: 44%
%-inhibition of IRAK1 [3]: 12%
%-inhibition, BLK [9]: 84%
%-inhibition of EGFR(T790M) [11]: 87%

Cc1ccc(Nc2nccc(N(C)c3ccc4c(C)n(C)nc4c3)n2)cc1S(N)(=O)=O [pazopanib]
IC50 [1, 13]: 28900 nM
IC50 [1, 14]: 10600 nM
IC50 [1, 15]: 9590 nM
IC50 [1, 16]: 6200 nM
IC50 [1, 17]: 5990 nM
IC50 [1, 18]: 8100 nM
IC50 [1, 19]: 13100 nM
IC50 [1, 20]: 229 nM
IC50 [1, 21]: 11100 nM
IC50 [1, 22]: 14800 nM
IC50 [1, 23]: 16700 nM
IC50 [1, 24]: 7300 nM
IC50 [1, 56]: 9330 nM
IC50 [1, 25]: 289 nM
IC50 [1, 26]: 6570 nM
IC50 [1, 27]: 19200 nM
IC50 [1, 28]: 7900 nM
IC50 [1, 29]: 6710 nM
IC50 [1, 30]: 7900 nM
IC50 [1, 31]: 18600 nM
IC50 [1, 32]: 10900 nM
IC50 [1, 33]: 10500 nM
IC50 [1, 34]: 11500 nM
IC50 [1, 35]: 11800 nM
IC50 [1, 36]: 17400 nM
IC50 [1, 37]: 11500 nM
IC50 [1, 38]: 4580 nM
IC50 [1, 39]: 12500 nM
IC50 [1, 40]: 9940 nM
IC50 [1, 41]: 7390 nM
IC50 [1, 42]: 13500 nM
IC50 [1, 43]: 6890 nM
IC50 [1, 44]: 25400 nM
IC50 [1, 45]: 8410 nM
IC50 [1, 46]: 1630 nM
IC50 [1, 47]: > 31600 nM
IC50 [1, 48]: 15100 nM
IC50 [1, 49]: 12500 nM
IC50 [1, 50]: 19400 nM
IC50 [1, 51]: 13100 nM
IC50 [1, 52]: 10200 nM
IC50 [1, 53]: 9110 nM
IC50 [1, 54]: 14000 nM
IC50 [1, 55]: 24000 nM
%-inhibition of MOS [2]: -12%
%-inhibition of IRAK1 [3]: 8%
%-inhibition, ARG [4]: 67%
%-inhibition of EGFR(L861Q) [12]: 13%
%-inhibition of EGFR ([7]; kinase EGFR, compound at 1 μM): 17%
%-inhibition, BLK [9]: 62%
%-inhibition of EGFR(T790M) [11]: 5%
%-inhibition of EGFR(L858R) ([10]; kinase EGFR(L858R), compound at 1 μM): 36%
